Test results published in US20100256214A1, “EPH RECEPTOR LIGANDS AND METHODS OF USE” (Burnham Institute for Medical Research, priority 2009, published 2010).

Experiments:
EphA2 = EphA2 tyrosine phosphorylation in COS7 cells; format: cell-based; conditions: for tyrosine phosphorylation of endogenous EphA2: COS7 cells stimulated with ephrin-A1 Fc
Description: FIGS. 6A-6F. A. HT22 neuronal cells pretreated with the indicated concentrations of compounds 1 or 2 for 15 min were stimulated with 0.5 μg/mL ephrin-A5 Fc (+) or Fc as a control (−) for 20 min in the continued presence of the compounds. EphA4 immunoprecipitates were probed with anti-phosphotyrosine antibody (PTyr) and reprobed for EphA4. C indicates immunoprecipitations performed with control antibodies from non-immunized rabbits. […] Error bars represent the standard error from 4 experiments for compound 1 and 3 experiments for compound 2. […] C. COS7 cells pretreated with the indicated concentrations of compounds 1 or 2 for 15 min were stimulated with 0.1 μg/mL ephrin-A1 Fc or Fc as a control in the continued presence of the compounds. EphA2 immunoprecipitates were probed with anti-phosphotyrosine antibody (PTyr) and reprobed for EphA2. C indicates immunoprecipitations performed with control antibodies. […] Error bars represent the standard error from 2 experiments. Statistical analyses were performed as in (B). HUVE cells were left unstimulated or stimulated with TNFα for 2 hours in the presence of 400 μM compound 1. Duplicate untreated samples are shown. C indicates immunoprecipitations performed with control antibodies. EphA2 immunoprecipitates were probed with anti-phosphotyrosine antibody (PTyr) and reprobed for EphA2. Levels of EphA2 phosphorylation quantified from immunoblots and normalized to the amount of immunoprecipitated EphA2 were also performed. […] The same protocol described in (C) was used, except that COS7 cells were stimulated with 0.5 μg/mL of ephrin-B2 Fc and the EphB2 receptor was immunoprecipitated. F. COS7 cells pretreated with the indicated concentrations of compounds 1 or 2 were stimulated with EGF (+) or left unstimulated (−). Lysates were probed with anti-phosphotyrosine antibody (PTyr) and reprobed for the EGF receptor.
Measurement of Receptor Tyrosine Phosphorylation in Cells—HT22 neuronal cells, which endogenously express EphA4, are derived from immortalized mouse hippocampal neurons (Li et al. (1997) Neuron 19(2), 453-463). COST cells, which endogenously express EphA2, EphB2 and the EGF receptor (EGFR), were obtained from ATCC. Both cell lines were grown in Dulbecco's Modified Eagle's Medium (DMEM) (Mediatech, Inc, Herndon, Va.) with 10% fetal bovine serum (FBS) (Hyclone, Logan, Utah) and Pen/Strep. For EphA4 immunoprecipitations, HT22 cells were serum-starved overnight in 0.5% FBS in DMEM and incubated for 15 min with the compounds or DMSO as a control. The cells were then stimulated with 0.5 μg/mL ephrin-A5 Fc, ephrin-A4 Fc or Fc for 20 min in the continued presence of the compounds. […] The protein concentration was calculated using the BCA protein assay kit (Pierce Biotecnology, Rockford, Ill.). […]

COS and HT22 cells = assay: Overall tyrosine phosphorylation in COS and HT22 cells; format: cell-based
Description: Measurement of Receptor Tyrosine Phosphorylation in Cells—HT22 neuronal cells, which endogenously express EphA4, are derived from immortalized mouse hippocampal neurons (Li et al. (1997) Neuron 19(2), 453-463). COST cells, which endogenously express EphA2, EphB2 and the EGF receptor (EGFR), were obtained from ATCC. Both cell lines were grown in Dulbecco's Modified Eagle's Medium (DMEM) (Mediatech, Inc, Herndon, Va.) with 10% fetal bovine serum (FBS) (Hyclone, Logan, Utah) and Pen/Strep. For EphA4 immunoprecipitations, HT22 cells were serum-starved overnight in 0.5% FBS in DMEM and incubated for 15 min with the compounds or DMSO as a control. The cells were then stimulated with 0.5 μg/mL ephrin-A5 Fc, ephrin-A4 Fc or Fc for 20 min in the continued presence of the compounds. After stimulation the cells were lysed in modified RIPA buffer (1% Triton X-100, 1% Na deoxycholate; 0.1% SDS; 20 mM Tris; 150 mM NaCl; 1 mM EDTA) containing […], 1 μM sodium pervanadate and protease inhibitors. The protein concentration was calculated using the BCA protein assay kit (Pierce Biotecnology, Rockford, Ill.). Cell lysates were immunoprecipitated with 4 μg anti-EphA4 antibody (Soans et al. (1994) Oncogene 9(11), 3353-3361). For EphA2 and EphB2 immunoprecipitations, serum-starved COS7 cells were stimulated with 0.1 μg/mL ephrin-A1 Fc or 0.5 μg/mL ephrin-B2 Fc, respectively. […]

SMILES | ephrin-dependent degradation of EphA2 (EphA2) | tyrosine phosphorylation of endogenous EphA2 (EphA2) | overall tyrosine phosphorylation (COS and HT22 cells)
Cc1ccc(C)n1-c1ccc(C(=O)O)c(O)c1 [compound 1, 4-(2,5-dimethyl-pyrrol-1-yl)-2-hydroxy-benzoic acid] | prevented | inhibited | did not inhibit
Cc1ccc(C)n1-c1ccc(O)c(C(=O)O)c1 [compound 2, 5-(2,5 dimethyl-pyrrol-1-yl)-2-hydroxy-benzoic acid] | prevented | inhibited | did not inhibit
